Data from BindingDB's records for doi:10.1016/j.ab.2004.03.009 (Schering-Plough Research Institute, 2004).

Biological target: E3 ubiquitin-protein ligase Mdm2 (Homo sapiens, UniProt Q00987)
Experiment: Fluorescence Polarization (FP) Binding Assay
Settings: pH 7.4; 23 °C
Description: Ki values were determined from a competition experiment in which serial dilutions of inhibitor were added to compete against a fixed concentration (1 or 10 nM) of the fluorescent ligand for binding to a fixed concentration of the protein. Ki value was determined by nonlinear regression fitting of the competition curve using a set of custom equations and an Excel curve fitting tool.

Sequence of E3 ubiquitin-protein ligase Mdm2 (Q00987 whole entry): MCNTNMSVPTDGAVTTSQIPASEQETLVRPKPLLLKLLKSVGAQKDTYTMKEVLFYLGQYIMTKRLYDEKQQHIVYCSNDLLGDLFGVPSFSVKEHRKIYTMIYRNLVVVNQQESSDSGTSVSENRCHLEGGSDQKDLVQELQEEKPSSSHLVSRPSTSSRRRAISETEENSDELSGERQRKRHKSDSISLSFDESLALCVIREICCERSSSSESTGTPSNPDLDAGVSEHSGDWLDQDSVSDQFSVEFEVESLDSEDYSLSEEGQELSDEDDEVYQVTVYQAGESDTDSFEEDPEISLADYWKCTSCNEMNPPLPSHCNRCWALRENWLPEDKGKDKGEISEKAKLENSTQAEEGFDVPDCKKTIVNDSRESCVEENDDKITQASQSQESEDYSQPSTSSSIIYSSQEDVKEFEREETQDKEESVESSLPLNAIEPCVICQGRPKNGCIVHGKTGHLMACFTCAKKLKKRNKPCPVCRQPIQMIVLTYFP

Compound	Ki [nM]
O=C(N[C@@H](Cc1c[nH]c2cc(Br)ccc12)C(=O)O)c1ccccc1Oc1ccccc1 [2-phenoxybenzoyltryptophan derivative, R1C1]	3000
O=C(N[C@@H](Cc1cn(C(=O)CCC2CCCC2)c2cc(Br)ccc12)C(=O)O)c1ccccc1Oc1ccccc1 [2-phenoxybenzoyltryptophan derivative, R1C2]	800
O=C(N[C@@H](Cc1cn(C(=O)OCc2ccccc2)c2cc(Br)ccc12)C(=O)O)c1ccccc1Oc1ccccc1 [2-phenoxybenzoyltryptophan derivative, R1C3]	500
O=C(N[C@@H](Cc1cn(Cc2ccc(OCc3ccccc3)cc2)c2cc(Br)ccc12)C(=O)O)c1ccccc1Oc1ccccc1 [2-phenoxybenzoyltryptophan derivative, R1C4]	600
O=C(N[C@@H](Cc1c[nH]c2cc(Cl)ccc12)C(=O)O)c1ccccc1Oc1ccccc1 [2-phenoxybenzoyltryptophan derivative, R2C1]	6000
O=C(N[C@@H](Cc1cn(C(=O)CCC2CCCC2)c2cc(Cl)ccc12)C(=O)O)c1ccccc1Oc1ccccc1 [2-phenoxybenzoyltryptophan derivative, R2C2]	800
O=C(N[C@@H](Cc1cn(C(=O)OCc2ccccc2)c2cc(Cl)ccc12)C(=O)O)c1ccccc1Oc1ccccc1 [2-phenoxybenzoyltryptophan derivative, R2C3]	600
O=C(N[C@@H](Cc1cn(Cc2ccc(OCc3ccccc3)cc2)c2cc(Cl)ccc12)C(=O)O)c1ccccc1Oc1ccccc1 [2-phenoxybenzoyltryptophan derivative, R2C4]	1000
O=C(N[C@@H](Cc1c[nH]c2cc(F)ccc12)C(=O)O)c1ccccc1Oc1ccccc1 [2-phenoxybenzoyltryptophan derivative, R3C1]	20000
O=C(N[C@@H](Cc1cn(C(=O)CCC2CCCC2)c2cc(F)ccc12)C(=O)O)c1ccccc1Oc1ccccc1 [2-phenoxybenzoyltryptophan derivative, R3C2]	400
O=C(N[C@@H](Cc1cn(C(=O)OCc2ccccc2)c2cc(F)ccc12)C(=O)O)c1ccccc1Oc1ccccc1 [2-phenoxybenzoyltryptophan derivative, R3C3]	800
O=C(N[C@@H](Cc1cn(Cc2ccc(OCc3ccccc3)cc2)c2cc(F)ccc12)C(=O)O)c1ccccc1Oc1ccccc1 [2-phenoxybenzoyltryptophan derivative, R3C4]	2000
N#Cc1ccc2[nH]cc(C[C@H](NC(=O)c3ccccc3Oc3ccccc3)C(=O)O)c2c1 [2-phenoxybenzoyltryptophan derivative, R4C1]	10000
N#Cc1ccc2c(c1)c(C[C@H](NC(=O)c1ccccc1Oc1ccccc1)C(=O)O)cn2C(=O)CCC1CCCC1 [2-phenoxybenzoyltryptophan derivative, R4C2]	600
N#Cc1ccc2c(c1)c(C[C@H](NC(=O)c1ccccc1Oc1ccccc1)C(=O)O)cn2C(=O)OCc1ccccc1 [2-phenoxybenzoyltryptophan derivative, R4C3]	600
N#Cc1ccc2c(c1)c(C[C@H](NC(=O)c1ccccc1Oc1ccccc1)C(=O)O)cn2Cc1ccc(OCc2ccccc2)cc1 [2-phenoxybenzoyltryptophan derivative, R4C4]	1000
Cc1ccc2[nH]cc(C[C@H](NC(=O)c3ccccc3Oc3ccccc3)C(=O)O)c2c1 [2-phenoxybenzoyltryptophan derivative, R5C1]	10000
Cc1ccc2c(c1)c(C[C@H](NC(=O)c1ccccc1Oc1ccccc1)C(=O)O)cn2C(=O)CCC1CCCC1 [2-phenoxybenzoyltryptophan derivative, R5C2]	200
Cc1ccc2c(c1)c(C[C@H](NC(=O)c1ccccc1Oc1ccccc1)C(=O)O)cn2C(=O)OCc1ccccc1 [2-phenoxybenzoyltryptophan derivative, R5C3]	100
Cc1ccc2c(c1)c(C[C@H](NC(=O)c1ccccc1Oc1ccccc1)C(=O)O)cn2Cc1ccc(OCc2ccccc2)cc1 [2-phenoxybenzoyltryptophan derivative, R5C4]	600
